Test results as given in EP2775836B1, “METHODS FOR TREATING GOUT FLARES” (CymaBay Therapeutics, Inc., priority 2011, dated 2013).

Key:
serum uric acid [1] = conditions: monotherapy at 40, 80, 120, 160 and 240 mg/day, gout patients; cited from earlier work
[2] = test system: high sensitivity C-Reactive Protein (hs-CRP); test: Phase 1 multiple-dose study M102-0507: change in hs-CRP in type 2 diabetic patients on Glynase; assay type: in vivo, human
Experimental: Data presented in FIGS. 6 and 7 were generated based on a single-center, Phase 1, randomized, single-blind, multiple-dose study (M102-0507) evaluating the effect of (-)-halofenate given to type 2 diabetic patients who were receiving a stable dose of Glynase® (micronized glyburide). Eligible patients were initially dosed for 3 days with Glynase® 3 mg/day, and if safety and tolerability were acceptable to the Investigator, the dose was increased to Glynase® 6 mg/day for 4 days, followed by 14 days of Glynase® 6 mg and either (-)-halofenate 400 mg or 600 mg administration until Day 21, the patients were discharged on Day 22.
In this study, change in high sensitivity C-Reactive Protein (hs-CRP) from baseline was one of the endpoints. […] At Day 22, the mean percentage changes in C-reactive protein compared to Day 1 were -21.1% and -32.9% in Group 1 ((-)-halofenate 400 mg) and Group 2 ((-)-halofenate 600 mg), respectively.

3T3-L1 adipocytes = test: Example 1: suppression of uric-acid induced inflammation in vitro; assay type: cell-based, murine; conditions: 50-150 µM, uric acid 5 or 15 mg/dL, 3 or 7 days
Experimental: Differentiated murine 3T3-L1 adipocytes are cultured in vitro in 24 well plates. To the culture medium (-)-halofenic acid is added at a final concentration of 50- 150 µM prior to the addition of uric acid at 5 mg/dL or 15 mg/dL and the culture continued for 3 or 7 days. A parallel culture of cells is conducted in the presence of a vehicle such as dimethylsulfoxide (DMSO). At the end of the culture period media is removed, cells are isolated and messenger RNA prepared. The levels of secreted cytokines representing a panel of pro-inflammatory cytokines including but not restricted to monocyte chemoatractant protein-1 (MCP-1), tumor necrosis factor α (TNF-α), interlekin-1β, (IL-1β), interleukin-6 (IL-6) and interleukin-12 (Il-12) are determined in the media isolated from the cells using commercially available cytokine assay kits. The levels of gene expression for the mRNAs for a panel of pro-inflammatory cytokines including but not restricted to monocyte chemoatractant protein-1 (MCP-1), tumor necrosis factor α (TNF-α), interlekin-1β, (IL-1β), interleukin-6 (IL-6) and interleukin-12 (Il-12) are determined using real-time PCR. […] A similar study is also conducted in primary mouse macrophages and human umbilical vein endothelial cells.

serum uric acid [3] = test: Phase 1 multiple-dose study MBX102-2DM01011b: serum uric acid after daily oral dosing for 10 days; assay type: in vivo, human; conditions: for Mean % change: Day 9 vs baseline; for Mean change at Day 9: change from baseline; for Mean uric acid at Day 9: healthy adult subjects
Experimental: Methods used in relation to FIG. 3 showing reduction in serum uric acid in subjects over time following once daily dosing with arhalofenate were as follows.
A single centre, Phase 1, placebo- and positive-controlled, double-blind, randomized, dose escalation study (MAD study, MBX102-2DM01011b) was conducted to evaluate the multiple-dose pharmacokinetics (PK) of (-)-halofenate administered as a daily dose orally for 10 days, at the protocol-specified doses in healthy adult subjects. A total of 119 subjects completed study treatment according to protocol: 6 subjects received MBX-102 100 mg/day for 10 days; 6 subjects received MBX-102 200 mg/day for 10 days; 9 subjects received MBX-102 400 mg/day for 10 days; 20 subjects received MBX-102 600 mg/day for 10 days; 10 subjects received MBX-102 600 mg Enteric Coated (EC) /day for 10 days; 9 subjects received MBX-102 800 mg EC/day for 10 days; 10 subjects received MBX-102 1000 mg EC/day for 10 days; 24 subjects received placebo treatment daily for 10 days; and 25 subjects received naproxen 500 mg b.i.d. monotherapy for 7 days. In this study, serum uric acid was measured at screening and on Days 1, 3, 5, 7, 9, 14, and 21.

[4] = Plasma concentration of (-)-halofenic acid after daily oral 400 mg arhalofenate (LC-MS/MS); assay type: in vivo, human
Experimental: Methods used in relation to FIGS. 1-2 showing the pharmacokinetic profile of (-)-halofenic acid were as follows:
Plasma proteins in human plasma samples containing of (-)-halofenic acid, an internal standard (I.S.) and heparin as the anticoagulant were precipitated with acetonitrile. The samples were vortex mixed, centrifuged and an aliquot was analyzed by reversed phase high performance liquid chromatography using a Phenomenex Polar RP column maintained at 45 °C. The mobile phase was nebulized using heated nitrogen in a Z-spray source/interface and the ionized compounds were detected using a tandem quadrupole mass spectrometer.
The plasma concentrations were rounded to the nearest one-tenth µg/mL before the calculations. Plasma samples with concentrations below the quantifiable limit of 1.0 µg/mL (BQL) were assigned values of zero.

IL-1β = IL-1β mRNA and secretion in LPS stimulated primary mouse macrophages; assay type: cell-based; conditions: 75 and 150 µM, 1 hour before 100 ng/mL LPS for 8 hours
Experimental: Methods used in relation to FIGS. 4-5 showing effects of (-)-halofenic acid IL-1β were as follows:
Eight week-old male C57BL/6J mice were injected intra-peritoneally with 2.5 mL of 3% thioglycollate. Three days after injection, mice were sacrificed by cervical dislocation. Macrophages were harvested immediately by injecting 5 mL of PBS into the intra-peritoneal cavity, surgically exposing the intra-peritoneal cavity and aspirating the intra-peritoneal fluid with a 1 mL syringe. Macrophages from multiple animals were pooled and centrifuged at 1500 rpm, 10 min at 4 °C. Contaminating red blood cells were removed from the pellet by lysis with 10 mL RBC lysis buffer for 5min at room temperature, followed by centrifugation at 1500 rpm, 10 min at 4 °C. The cells were washed once and re-suspended in RPMI 1640, 10% FBS/0.1% Pen/Strep and plated into multi-well plates (1,000,000 cells/well for 24 well plates and 100,000 cells/well for 96 well plates). The cells were cultured for 30 hours, re-fed with fresh RPMI 1640, 0.5% FBS and incubated overnight. […]
The cells were harvested in Qiazol lysis solution for gene expression analysis. […] The Ct values for IL-1β were determined using ABI Sequence Detection Software. […] The fold change is then calculated using the formula 2^-[delta][delta]Ct. […]

[5] = 600 mg Enteric Coated (EC)/day for 10 days

O=c1[nH]cnc2c(CN3C[C@H](CO)[C@@H](O)C3)c[nH]c12 [BCX4208, 7-(((3R,4R)-3-hydroxy-4-(hydroxymethyl)pyrrolidin-1-yl)methyl)-3H-pyrrolo[3,2-d]pyrimidin-4(5H)-one]
serum uric acid (serum uric acid [1]): rapidly and significantly reduced

CC(=O)NCCOC(=O)[C@H](Oc1cccc(C(F)(F)F)c1)c1ccc(Cl)cc1 [(-)-halofenate, (-)-(R)-(4-chloro-phenyl)-(3-trifluoromethyl-phenoxy)-acetic acid 2-acetylamino-ethyl ester]
Day 22 hs-CRP ([2]; (-)-halofenate 600 mg/day Day 8-21 with Glynase 6 mg/day, type 2 diabetic patients): 4.4 | mean percentage change in C-reactive protein at Day 22 compared to Day 1 ([2]; Group 1: 400 mg/day Day 8-21 with Glynase 6 mg/day): -21.1% | Mean % change from Day 8 (Day 22 hs-CRP) ([2]; Group 2: 600 mg/day Day 8-21 with Glynase 6 mg/day, Day 8 = Glyburide only phase): -33.3% | expression and secretion of panel of pro-inflammatory cytokines (3T3-L1 adipocytes): reduced level of expression and consequently secretion | uptake of uric acid into 3T3-L1 adipocytes (3T3-L1 adipocytes): prevents the uptake of uric acid | Mean % change (serum uric acid [3]; 400 mg/day orally for 10 days): -21% | Mean change at Day 9 (serum uric acid [3]; 400 mg/day orally for 10 days): -1.02 mg/dL | Mean uric acid at Day 9 (serum uric acid [3]; 400 mg/day orally for 10 days): 3.89 mg/dL | Mean % change (serum uric acid [3]; [5]): -30% | Mean change at Day 9 (serum uric acid [3]; [5]): -1.69 mg/dL | Mean uric acid at Day 9 (serum uric acid [3]; [5]): 3.92 mg/dL | Mean % change (serum uric acid [3]; 600 mg/day orally for 10 days): -33% | Mean change at Day 9 (serum uric acid [3]; 600 mg/day orally for 10 days): -1.65 mg/dL | Mean uric acid at Day 9 (serum uric acid [3]; 600 mg/day orally for 10 days): 3.40 mg/dL | Mean % change (serum uric acid [3]; 800 mg EC/day for 10 days): -32% | Mean change at Day 9 (serum uric acid [3]; 800 mg EC/day for 10 days): -1.77 mg/dL | Mean uric acid at Day 9 (serum uric acid [3]; 800 mg EC/day for 10 days): 3.83 mg/dL | Mean % change (serum uric acid [3]; 1000 mg EC/day for 10 days): -45% | Mean change at Day 9 (serum uric acid [3]; 1000 mg EC/day for 10 days): -2.44 mg/dL | Mean uric acid at Day 9 (serum uric acid [3]; 1000 mg EC/day for 10 days): 3.04 mg/dL | reduction in serum uric acid (serum uric acid [3]; all dose levels tested, dose dependent, over a period of time): gradual reduction

O=C(O)C(Oc1cccc(C(F)(F)F)c1)c1ccc(Cl)cc1 (single isomer, unassigned; (-)) [(-)-halofenic acid, (-)-4-chlorophenyl-(3-trifluoromethylphenoxy) acetic acid]
intraday plasma concentration ([4]; Day 15 and Day 30, daily oral 400 mg arhalofenate, FIG. 2): relatively constant | half-life ([4]; plasma, daily oral 400 mg arhalofenate for 30 days, FIGS. 1-2): long half-life | messenger RNA encoding the pro-inflammatory cytokine IL-1β (IL-1β; FIG. 4): lower the messenger RNA | secretion of the pro-inflammatory cytokine IL-1β (IL-1β; FIG. 5): lowering the secretion
